{"source": "patent US7332495B2", "about": "(priority 2002, dated 2008)", "key": {"NMDA receptor": {"test_system": "NMDA receptor", "assay": "Binding test with NMDA receptor", "conditions": "0.1 μM, 1 μM and 10 μM"}, "[1]": {"test_system": "S. typhimurium TA97, TA98, TA100 and TA102", "assay": "Bacterial reverse-mutation assay (Ames)", "type": "cell-based", "conditions": "for Effect on bacterial growth: 5000 μg/plate", "from_the_text": "Strains: S. typhimurium TA97, TA98, TA100 and TA102\nResults: The assay included two parts without S9 and with S9. […] For all tested doses, there was no significant increase of revertants. Ames test for of IV-12 is negative."}, "Kunming mice": {"test_system": "Kunming mice", "assay": "Sedation: spontaneous activities recorded with alternating current tube", "type": "in vivo", "method": "Kunming mice were used, with a male-female ratio of 50-50%. […] After 30 minutes, acetic acid (0.7%, […] i.p.) was injected and the number of writhes was observed during a 5-minute period after acetic acid administration. The inhibition ratio of the writhing threshold was calculated. The alternating current tube is used to record the spontaneous activities for measuring sedation."}, "rats [2]": {"test_system": "rats", "assay": "Defervescence in rats given Brewers' yeast", "type": "in vivo", "conditions": "p.o., 60 mg/kg, Brewers' yeast s.c. 7%"}, "Mice": {"test_system": "Mice", "type": "in vivo", "conditions": "6 days training", "method": "30 mice were divided into 3 groups (10 for each group, ? fifty-fifty): IV-12-1 (1 mg/kg), IV-12-2 (5 mg/kg) and NS. Half of the mice in each group were administrated (s.c.) in the morning and 30 minutes later put into a white box (with medicine), and trained for 30 minutes; Saline is administrated (s.c.) in the afternoon and 30 minutes later put into a black box (without medicine), and trained for 30 minutes. The other half of the group are given saline in the morning and IV-12 in the afternoon, other procedures are the same as above.\nThe two training periods were at least 6-hour apart and training was continuous for 6 days. On the 7th day, the staying time was tested in both of the boxes."}, "Acute toxicity in mice": {"assay": "Acute toxicity in mice", "conditions": "mouse, in vivo, po, Bliss method"}, "rats [3]": {"test_system": "rats", "assay": "Spontaneous withdrawal tests (body weight)", "type": "in vivo", "conditions": "for Weight after withdrawal compared with weight one day before withdrawal: IV-12-1 75 mg/kg; for Increase (%) of weight / Weight: IV-12-1 (75 mg/kg)"}}, "note": "Read-outs that look alike come from different tables or passages of the source.", "data": [{"smiles": "Nc1ccc(CN2CCN(CC(=O)c3ccccc3)CC2)cc1", "note": "[IV-12, N^1-(4-aminobenzyl)-N^4-phenacyl piperazine]", "values": [{"measurement": "Antagonism on Glu site of NMDA receptor", "setting": "NMDA receptor", "result": "no antagonism"}, {"measurement": "Antagonism on Gly site of NMDA receptor", "setting": "NMDA receptor", "result": "no antagonism"}, {"measurement": "Antagonism on ion-channel site of NMDA receptor", "setting": "NMDA receptor", "result": "no antagonism"}, {"measurement": "Effect on bacterial growth", "setting": "[1]; with S9, TA97", "result": "inhibitory effect"}, {"measurement": "Effect on bacterial growth", "setting": "[1]; without S9, TA98", "result": "inhibitory effect"}, {"measurement": "Ames test", "setting": "[1]; without S9 and with S9, TA97, TA98, TA100, TA102", "result": "negative"}, {"measurement": "Sedation (writhing model)", "setting": "Kunming mice; 20 mg/kg, Table 5 summary", "result": 97}, {"measurement": "inhibition in vivo at 20 mg/kg", "setting": "Kunming mice; Mus musculus, ip, i.p. 20 mg/Kg, spontaneous activities", "result": 97, "unit": "%"}, {"measurement": "Defervescence effect", "setting": "rats [2]", "result": "no defervescence effect"}, {"measurement": "Staying time in box with medicine", "setting": "Mice; 1 mg/kg s.c.", "result": "496.4 ± 73.4", "unit": "s"}, {"measurement": "Staying time in box with medicine", "setting": "Mice; 5 mg/kg s.c.", "result": "452.8 ± 119.5", "unit": "s"}, {"measurement": "LD50", "setting": "Acute toxicity in mice", "result": 309, "unit": "mg/kg"}, {"measurement": "Weight after withdrawal compared with weight one day before withdrawal", "setting": "rats [3]; ♀, 18 h after withdrawal", "result": "1.01 ± 0.03"}, {"measurement": "Weight after withdrawal compared with weight one day before withdrawal", "setting": "rats [3]; ♀, 42 h after withdrawal", "result": "1.02 ± 0.05"}, {"measurement": "Weight after withdrawal compared with weight one day before withdrawal", "setting": "rats [3]; ♀, 66 h after withdrawal", "result": "1.03 ± 0.04"}, {"measurement": "Weight after withdrawal compared with weight one day before withdrawal", "setting": "rats [3]; ♀, 90 h after withdrawal", "result": "1.04 ± 0.06"}, {"measurement": "Weight after withdrawal compared with weight one day before withdrawal", "setting": "rats [3]; ♀, 114 h after withdrawal", "result": "1.06 ± 0.06"}, {"measurement": "Weight after withdrawal compared with weight one day before withdrawal", "setting": "rats [3]; ♀, 162 h after withdrawal", "result": "1.08 ± 0.07"}, {"measurement": "Weight after withdrawal compared with weight one day before withdrawal", "setting": "rats [3]; ♂, 18 h after withdrawal", "result": "1.01 ± 0.03"}, {"measurement": "Weight after withdrawal compared with weight one day before withdrawal", "setting": "rats [3]; ♂, 42 h after withdrawal", "result": "1.02 ± 0.03"}, {"measurement": "Weight after withdrawal compared with weight one day before withdrawal", "setting": "rats [3]; ♂, 66 h after withdrawal", "result": "1.04 ± 0.04"}, {"measurement": "Weight after withdrawal compared with weight one day before withdrawal", "setting": "rats [3]; ♂, 90 h after withdrawal", "result": "1.06 ± 0.05"}, {"measurement": "Weight after withdrawal compared with weight one day before withdrawal", "setting": "rats [3]; ♂, 114 h after withdrawal", "result": "1.08 ± 0.05"}, {"measurement": "Weight after withdrawal compared with weight one day before withdrawal", "setting": "rats [3]; ♂, 138 h after withdrawal", "result": "1.11 ± 0.06"}, {"measurement": "Weight after withdrawal compared with weight one day before withdrawal", "setting": "rats [3]; ♂, 162 h after withdrawal", "result": "1.12 ± 0.09"}, {"measurement": "Increase (%) of weight", "setting": "rats [3]; 12 h after withdrawal", "result": 2.9, "unit": "%"}, {"measurement": "Weight", "setting": "rats [3]; 12 h after withdrawal", "result": "248.1 ± 42", "unit": "g"}, {"measurement": "Weight", "setting": "rats [3]; 18 h after withdrawal", "result": "250.5 ± 39", "unit": "g"}, {"measurement": "Increase (%) of weight", "setting": "rats [3]; 24 h after withdrawal", "result": 2.2, "unit": "%"}, {"measurement": "Weight", "setting": "rats [3]; 24 h after withdrawal", "result": "246.3 ± 37", "unit": "g"}, {"measurement": "Weight", "setting": "rats [3]; 36 h after withdrawal", "result": "253.9 ± 38", "unit": "g"}, {"measurement": "Increase (%) of weight", "setting": "rats [3]; 42 h after withdrawal", "result": 4.3, "unit": "%"}, {"measurement": "Weight", "setting": "rats [3]; 42 h after withdrawal", "result": "251.3 ± 37", "unit": "g"}, {"measurement": "Increase (%) of weight", "setting": "rats [3]; 48 h after withdrawal", "result": 3.3, "unit": "%"}, {"measurement": "Weight", "setting": "rats [3]; 48 h after withdrawal", "result": "249.1 ± 36", "unit": "g"}, {"measurement": "Increase (%) of weight", "setting": "rats [3]; 60 h after withdrawal", "result": 7.2, "unit": "%"}, {"measurement": "Increase (%) of weight", "setting": "rats [3]; 66 h after withdrawal", "result": 4.8, "unit": "%"}, {"measurement": "Weight", "setting": "rats [3]; 66 h after withdrawal", "result": "252.8 ± 37", "unit": "g"}, {"measurement": "Increase (%) of weight", "setting": "rats [3]; 72 h after withdrawal", "result": 4.4, "unit": "%"}, {"measurement": "Increase (%) of weight", "setting": "rats [3]; 84 h after withdrawal", "result": 9.4, "unit": "%"}, {"measurement": "Weight", "setting": "rats [3]; 84 h after withdrawal", "result": "263.7 ± 40", "unit": "g"}, {"measurement": "Increase (%) of weight", "setting": "rats [3]; 90 h after withdrawal", "result": 6.8, "unit": "%"}, {"measurement": "Weight", "setting": "rats [3]; 90 h after withdrawal", "result": "257.4 ± 39", "unit": "g"}, {"measurement": "Increase (%) of weight", "setting": "rats [3]; 96 h after withdrawal", "result": 5.4, "unit": "%"}, {"measurement": "Weight", "setting": "rats [3]; 96 h after withdrawal", "result": "254.2 ± 43", "unit": "g"}, {"measurement": "Increase (%) of weight", "setting": "rats [3]; 108 h after withdrawal", "result": 11.4, "unit": "%"}, {"measurement": "Weight", "setting": "rats [3]; 108 h after withdrawal", "result": "268.6 ± 42", "unit": "g"}, {"measurement": "Increase (%) of weight", "setting": "rats [3]; 114 h after withdrawal", "result": 8.5, "unit": "%"}, {"measurement": "Weight", "setting": "rats [3]; 114 h after withdrawal", "result": "261.6 ± 40", "unit": "g"}, {"measurement": "Increase (%) of weight", "setting": "rats [3]; 120 h after withdrawal", "result": 8.0, "unit": "%"}, {"measurement": "Weight", "setting": "rats [3]; 120 h after withdrawal", "result": "260.3 ± 40", "unit": "g"}, {"measurement": "Increase (%) of weight", "setting": "rats [3]; 132 h after withdrawal", "result": 14.4, "unit": "%"}, {"measurement": "Weight", "setting": "rats [3]; 132 h after withdrawal", "result": "275.8 ± 41", "unit": "g"}, {"measurement": "Increase (%) of weight", "setting": "rats [3]; 138 h after withdrawal", "result": 11.3, "unit": "%"}, {"measurement": "Weight", "setting": "rats [3]; 138 h after withdrawal", "result": "268.3 ± 41", "unit": "g"}, {"measurement": "Increase (%) of weight", "setting": "rats [3]; 144 h after withdrawal", "result": 9.8, "unit": "%"}, {"measurement": "Weight", "setting": "rats [3]; 144 h after withdrawal", "result": "264.7 ± 42", "unit": "g"}, {"measurement": "Increase (%) of weight", "setting": "rats [3]; 156 h after withdrawal", "result": 15.7, "unit": "%"}]}]}
